Legend:
[1] = target: D4 receptor; settings: marketed products, background section; read-out: D4 affinity, Ki value; cited from earlier work
[2] = system: D4 receptor relative to the D2 receptor; settings: marketed products, background section; cited from earlier work
[3] = system: human D2 receptor (short isoform) relative to human D4 receptor (D4.2 sub-type); assay: D4 selectivity: D2 versus D4 receptor binding (displacement of 3H-spiperone); settings: D2/D4 ratio, D2 in GH4 C1 cells, D4 in HEK 298 cells
Experimental: The potency of the test compound to reduce ^3 H-spiperone binding directly correlated to its binding affinity for the receptor. […] When used in the assay, cells were thawed on ice for 20 minutes and then 10 mL of incubation buffer (50 mM Tris, 1 mM EDTA, 4 mM MgCI2, 5 mM KCI, 1.5 mM CaCI2, 120 mM NaCI, pH7.4) was added. […] Concentration of receptor protein was determined using the Pierce BCA assay. […] After 16 hours, fresh media was added to allow the cells to recover for 24 hours. The cells were harvested using versene and then centrifuged in a Sorval centrifuge for 10 minutes, at 5000 rpm (GS3 rotor). Pellets were quickly frozen in liquid nitrogen and stored at -80° C. until used in the binding assays. When used in the assay, cells were thawed on ice for 20 minutes. […] The receptor protein concentration was determined using the Pierce BCA assay. […] The tubes were vortexed and incubated at room temperature for 90 minutes. The binding reaction was stopped by filtering using a Brandell Cell Harvester. The samples were filtered under vacuum over glass fibre filters (Whatman GF/B) presoaked for 2 hours in 0.3% polyethylenimine (PEI) in 50 mM Tris buffer (pH7.4). The filters were then washed 3 times with 5 mL ice cold 50 mM Tris buffer (pH7.4). Individual filter disks were put in scintillation vials (Biovials, Bechman). […] The tubes were vortexed and incubated at room temperature for 90 minutes at which time the binding reaction was stopped by filtering. The filters were washed and counted using the same procedure as in the total binding assay described above to give the non-specific binding value (NSB). […] The tubes were vortexed and incubated at room temperature for 90 minutes at which time the binding reaction was stopped by filtering. The filters were washed and counted using the same procedure as in the total binding assay described above to give the displacement binding value (BD). […] IC50 was determined from an inhibition response curve, logit-log plot of %B/B0 vs concentration of test compound.

[4] = target: T1, human D4 receptor (D4.2 sub-type) (Homo sapiens, UniProt P21917, DEL265-296); assay: D4 receptor-binding affinity (displacement of 3H-spiperone); settings: 3H-spiperone 0.25 nM, HEK 298 cell membranes, Cheng and Prustoff transformation
T1 construct: expressed in transfected cells; host or cells: HEK 298 (human embryonic kidney); homogenate used
T1 sequence (P21917 with tags, fused parts or gaps DEL265-296): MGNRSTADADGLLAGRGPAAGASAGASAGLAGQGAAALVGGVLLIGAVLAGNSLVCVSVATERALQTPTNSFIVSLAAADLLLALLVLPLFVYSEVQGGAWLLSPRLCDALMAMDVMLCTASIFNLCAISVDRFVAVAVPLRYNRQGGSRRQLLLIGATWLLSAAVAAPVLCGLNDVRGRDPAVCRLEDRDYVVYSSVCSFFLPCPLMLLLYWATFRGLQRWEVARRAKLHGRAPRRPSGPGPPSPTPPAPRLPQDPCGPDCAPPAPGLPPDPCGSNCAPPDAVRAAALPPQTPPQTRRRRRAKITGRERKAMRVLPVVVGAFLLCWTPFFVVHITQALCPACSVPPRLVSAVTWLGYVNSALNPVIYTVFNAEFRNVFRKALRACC
Experimental: The potency of the test compound to reduce ^3 H-spiperone binding directly correlated to its binding affinity for the receptor.
The cells were then centrifuged in a Sorval centrifuge for 10 minutes, 5000 rpm (GS3 rotor) and the pellets quickly frozen in liquid nitrogen and stored at -80° C. until used in binding assay.
Concentration of receptor protein was determined using the Pierce BCA assay.
The tubes were vortexed and incubated at room temperature for 90 minutes. The binding reaction was stopped by filtering using a Brandell Cell Harvester. The samples were filtered under vacuum over glass fibre filters (Whatman GF/B) presoaked for 2 hours in 0.3% polyethylenimine (PEI) in 50 mM Tris buffer (pH7.4). The filters were then washed 3 times with 5 mL ice cold 50 mM Tris buffer (pH7.4). Individual filter disks were put in scintillation vials (Biovials, Bechman).
The tubes were vortexed and incubated at room temperature for 90 minutes at which time the binding reaction was stopped by filtering. The filters were washed and counted using the same procedure as in the total binding assay described above to give the non-specific binding value (NSB).
The incubation was started by the addition to 12×75 mm polypropylene tubes 500 μl (50 μg protein) membrane homogenate to a solution of 400 μl incubation buffer, 100 μl (0.25 final conc.) ^3 H-spiperone (90Ci/mmol, Amersham, diluted in borosilicate glass vial to) and […] of test compound that was prepared from 1 mM stock dissolved in DMSO and stored at -20° C. in polypropylene cryogenic storage vials until dilution in incubation buffer in borosilicate glass vials. The tubes were vortexed and incubated at room temperature for 90 minutes at which time the binding reaction was stopped by filtering. The filters were washed and counted using the same procedure as in the total binding assay described above to give the displacement binding value (BD).
IC50 was determined from an inhibition response curve, logit-log plot of %B/B0 vs concentration of test compound.
Ki was calculated by the Cheng and Prustoff transformation: […]
where [L] is the concentration of ^3 H-spiperone used in the assay and KD is the dissociation constant of ^3 H-spiperone determined independently under the same binding conditions.

Row | Structure (SMILES) | D2/D4 [3] | Ki [4] [nM] | Ki [1] [nM] | preference for binding the D4 receptor relative to the D2 receptor [2]
1 | CN1CCN(C2=Nc3cc(Cl)ccc3Oc3ccccc32)CC1 [isoloxapine] |  |  | ~20 | about 10 fold
2 | Clc1ccc2c(c1)N=C(N1CCN(Cc3ccccc3)CC1)c1ccccc1O2 [8-Chloro-11-(4-benzyl-1-piperazinyl)-dibenz[b,f][1,4]oxazepine] | 31.7 | 19 |  | 
3 | N#Cc1ccc(CN2CCN(C3=Nc4ccccc4Oc4ccccc43)CC2)cc1 [11-[4-(4-cyanobenzyl)-1-piperazinyl]dibenz[b,f][1,4]oxazepine] | 90.1 | 108 |  | 

More lines, main results first:

Row | D2/D4 [3] | Ki [4] [nM] | Structure (SMILES) | Ki [1] [nM] | preference for binding the D4 receptor relative to the D2 receptor [2]
4 | 16.1 | 519 | N#Cc1ccccc1CN1CCN(C2=Nc3ccccc3Oc3ccccc32)CC1 [11-[4-(2-cyanobenzyl)-1-piperazinyl]dibenz[b,f][1,4]oxazepine] |  | 
5 | 21.7 | 134 | N#Cc1cccc(CN2CCN(C3=Nc4ccccc4Oc4ccccc43)CC2)c1 [11-[4-(3-cyanobenzyl)-1-piperazinyl]dibenz[b,f][1,4]oxazepine] |  | 
